Data on 15 compounds can be found in PubChem BioAssay (NCI).

Among the test systems are SF-268 CNS; M14 melanoma; OVCAR-8 ovarian; HS 578T breast; 786-0 renal; CAKI-1 renal; SK-MEL-2 melanoma; HOP-92 NSCLC; DMS 273 small cell lung; LXFL 529 NSCLC; M19-MEL melanoma; DMS 114 small cell lung; KM20L2 colon.
Holding throughout (test): NCI-60 cell line screen, 48 h

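The compound was tested at five concentrations on cells cultured in 96-well plates, with a 48-hour exposure period. GI50 is the concentration that inhibits growth by half. TGI: total growth inhibition.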

For `O=S(=O)(Nc1nc2ccccc2nc1Nc1ccc2ccccc2c1)c1ccccc1`, the TGI in the assay on SF-268 CNS is over 67.7 µM; in the assay with M14 melanoma, over 57.2 µM; with OVCAR-8 ovarian, over 100 µM; with HS 578T breast it was over 74.5 µM; in the assay with 786-0 renal it was over 100 µM; in the assay with CAKI-1 renal, 99 µM. Further, the TGI with SK-MEL-2 melanoma came to 14 µM; with HOP-92 NSCLC, 51.3 µM.

For `CC(C)(C)OC(=O)NC1CC2(C=C(Br)C(=O)C(Br)=C2)OC1=O` (stereo not given), the TGI in the assay with SF-268 CNS is 32.2 µM; in the assay on M14 melanoma, 20.2 µM; in the assay on OVCAR-8 ovarian, 21.4 µM; in the assay with HS 578T breast, 51.3 µM; in the assay on 786-0 renal, 7.5 µM; in the assay on CAKI-1 renal, 11.6 µM. For the same compound, the TGI in the assay on SK-MEL-2 melanoma stood at 32 µM; in the assay on HOP-92 NSCLC, 30.1 µM.

Take `CN1C/C(=C\c2cccs2)C(O)/C(=C/c2cccs2)C1` (stereo not given): the TGI in the assay on SF-268 CNS, in the assay with M14 melanoma, in the assay on OVCAR-8 ovarian, in the assay on HS 578T breast, in the assay with 786-0 renal and with CAKI-1 renal was over 100 µM in each case. Also, the TGI with SK-MEL-2 melanoma and in the assay with HOP-92 NSCLC was over 100 µM each time.

Consider `CCOC(=O)C1=C(O)C2C3CC4C2C(O)=C(C(=O)OCC)C2C1C3C42` (stereo not given), for which the TGI in the assay with SF-268 CNS, in the assay on M14 melanoma, with OVCAR-8 ovarian, in the assay on HS 578T breast, with 786-0 renal and with CAKI-1 renal was over 100 µM throughout. For the same compound, the TGI in the assay on SK-MEL-2 melanoma and in the assay on HOP-92 NSCLC was over 100 µM throughout.

As for `COC(CN(C(C)=O)C1CCC2(SCCS2)c2[nH]c3ccccc3c21)OC` (stereo not given), the TGI with SF-268 CNS, in the assay on M14 melanoma, in the assay on OVCAR-8 ovarian, in the assay with HS 578T breast, in the assay with 786-0 renal and with CAKI-1 renal was over 100 µM throughout. For the same compound, the TGI in the assay on SK-MEL-2 melanoma and in the assay on HOP-92 NSCLC was over 100 µM each time.

As to `O=S(=O)(O)c1cc(N=Nc2c(O)ccc3ccccc23)ccc1/C=C/c1ccc(N=Nc2c(O)ccc3ccccc23)cc1S(=O)(=O)O`, the TGI in the assay on SF-268 CNS, in the assay on M14 melanoma, in the assay on OVCAR-8 ovarian, in the assay on HS 578T breast, with 786-0 renal and in the assay on CAKI-1 renal was over 100 µM throughout. In addition, the TGI in the assay on SK-MEL-2 melanoma and with HOP-92 NSCLC was over 100 µM in each case.

In the case of `O=C(O)CCS/C(=C\C(SCCC(=O)O)c1ccc(Cl)cc1)c1ccc(Cl)cc1` (stereo not given), the TGI in the assay with SF-268 CNS, in the assay on M14 melanoma, with OVCAR-8 ovarian, with HS 578T breast, with 786-0 renal and with CAKI-1 renal was over 100 µM in each case. Further, the TGI in the assay on SK-MEL-2 melanoma is 74.4 µM; in the assay with HOP-92 NSCLC, over 100 µM.

For `CSc1ccc(-c2cc(-c3nc4ccccc4[nH]3)no2)cc1`, the TGI with SF-268 CNS was over 100 µM; with M14 melanoma, 56.2 µM; with OVCAR-8 ovarian, over 100 µM; in the assay on HS 578T breast it was over 100 µM; in the assay on 786-0 renal, over 100 µM; with CAKI-1 renal it was 70 µM. Further, the TGI in the assay on SK-MEL-2 melanoma is 49.4 µM; in the assay on HOP-92 NSCLC, over 100 µM.

On to `CC1=NC2=Nc3nc(C)cc[n+]3CN2C=C1`, for which the TGI in the assay with SF-268 CNS, in the assay with M14 melanoma, in the assay with OVCAR-8 ovarian, in the assay on HS 578T breast, in the assay with 786-0 renal and in the assay on CAKI-1 renal was over 100 µM each time. Further, the TGI in the assay on SK-MEL-2 melanoma and in the assay with HOP-92 NSCLC was over 100 µM throughout.

With `Cc1cc2/c(=C\c3ccc(N(C)C)cc3)c3ccccc3n2[n+]1C`, the TGI with SF-268 CNS was 6.57 µM; with M14 melanoma, 3.73 µM; with OVCAR-8 ovarian, 1.78 µM; in the assay on HS 578T breast, 8.95 µM; with 786-0 renal it was 8.77 µM; with CAKI-1 renal it was 22.3 µM. The TGI was found to be 2.08 µM in the assay with SK-MEL-2 melanoma and 3.52 µM in the assay on HOP-92 NSCLC.

As for `CS(=O)(=O)OCCN(CCOS(C)(=O)=O)c1ccc(C=Nc2cccc(Cl)c2)cc1`, the TGI with SF-268 CNS was over 100 µM; with M14 melanoma it was 55.5 µM; in the assay on OVCAR-8 ovarian, over 100 µM; in the assay with HS 578T breast, 98.9 µM; in the assay on 786-0 renal, over 100 µM; in the assay with CAKI-1 renal, 1.56 µM. The TGI in the assay on SK-MEL-2 melanoma is 66.5 µM; in the assay on HOP-92 NSCLC it was over 92.7 µM.

Regarding `Cn1c2ccccc2c2c3c(c4c5ccccc5n(C)c4c21)C(=O)NC3=O`, the TGI was over 100 µM in the assay on SF-268 CNS; over 100 µM with M14 melanoma; over 100 µM in the assay on OVCAR-8 ovarian; over 72.6 µM in the assay with HS 578T breast; 27.5 µM with 786-0 renal; over 100 µM in the assay on CAKI-1 renal. For the same compound, the TGI was over 58.3 µM in the assay on SK-MEL-2 melanoma and over 100 µM in the assay on HOP-92 NSCLC.

In the case of `O=C1CC2CC3OC3[C@H]3c4cc5c(cc4C(=O)N1C23)OCO5` (stereo not given in full), the TGI with DMS 273 small cell lung, in the assay on SF-268 CNS, in the assay with M14 melanoma, in the assay with OVCAR-8 ovarian, with LXFL 529 NSCLC and in the assay on M19-MEL melanoma was over 100 µM throughout. Besides, the TGI in the assay on CAKI-1 renal, in the assay with DMS 114 small cell lung, in the assay with KM20L2 colon, with SK-MEL-2 melanoma and in the assay with HOP-92 NSCLC was over 100 µM in each case.

On to `COc1c(/C=C/C(C)(C)O)cc(C2CC(=O)c3c(O)cc(O)cc3O2)cc1CC=C(C)C` (stereo not given), for which the TGI in the assay with SF-268 CNS is 19.2 µM; in the assay on M14 melanoma, 16 µM; in the assay with OVCAR-8 ovarian, 23.1 µM; with HS 578T breast it was 24.9 µM; with 786-0 renal, 18.1 µM; with CAKI-1 renal, over 50 µM. Besides, the values for the TGI in the assay with SK-MEL-2 melanoma and with HOP-92 NSCLC were 15.6 µM and 17.8 µM, respectively.

As for `O=C(N/N=C/c1cc(Cl)cc(Cl)c1[O-])c1ccccc1O.O=C(N/N=C/c1cc(Cl)cc(Cl)c1[O-])c1ccccc1O.[Co+2]`, the TGI was found to be 21.2 µM in the assay with SF-268 CNS; 2.95 µM with M14 melanoma; 11.6 µM in the assay on OVCAR-8 ovarian; 6.3 µM in the assay with CAKI-1 renal; 7.43 µM with KM20L2 colon; 3.74 µM in the assay on SK-MEL-2 melanoma. The compound further displayed a TGI in the assay on HOP-92 NSCLC of 3.18 µM. For the same compound, the results for the GI50 with KM20L2 colon, in the assay with SK-MEL-2 melanoma and in the assay with HOP-92 NSCLC were 2.14 µM, 0.37 µM and 0.471 µM, respectively.
